Data taken from article PMC7531004, “Discovery of gramicidin A analogues with altered activities by multidimensional screening of a one-bead-one-compound library” (Nature Communications, 2020).
Where a SMILES comes first, the peptide text is derived from it. [ ]: non-standard residue; d: D form. The star is where a group is joined. NHCH2CH2OH = OCCN*; For = O=C*

Legend:
[1] = test system: Streptococcus pyogenes SSI-9; test: Antibacterial activity assay of bead-derived peptides (three concentrations); assay type: cell-based; design: key: +++: inhibition by the 640-fold diluted peptide solution; ++: inhibition by the 160-fold diluted solution; +: inhibition by the 40-fold diluted solution; -: no inhibition; details: S. pyogenes, bead-derived peptide solution, three concentrations
How it was run: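 Library peptide stock applied undiluted, 4-fold and 16-fold diluted in DMSO to S. pyogenes SSI-9 (2 × 10^5 CFU) in cation-adjusted Mueller Hinton broth with 5% laked horse blood. After 18 h at 37 °C, growth judged by visible cell precipitation.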

[2] = test system: P388 mouse leukemia cells; details: 92 h
How it was run: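 P388 cells at 1 × 10^4 cells/mL (final) were exposed to library peptides (stocks diluted 250-fold in RPMI1640/10% FBS) for 92 h at 37 °C, 5% CO2. Viable cells were counted by WST-1/1-methoxy PMS (4 h), absorbance 415 nm, and expressed as cell viability (%).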

[3] = H+/Na+ transport assay of bead-derived peptides (one-point); assay type: biochemical; design: key: relative activity; mean of two control wells = 1.00; details: bead-derived peptide solution, EYPC/EYPG LUVs;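 also: relative to parent gramicidin A activity set to 1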
How it was run: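 Values are normalized fluorescence, with Triton X-100 defining 100% and untreated LUVs 0%, and the two control wells averaging 1.00. Vesicles carried 1.0 mM pyranine and included egg yolk phosphatidylglycerol. Peptides were incubated with them 30 min at room temperature.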

SMILES | antibacterial activity [1] | cell viability/% [2] | H+/Na+ transport activity normalized against the value of 1 (1.00) [3]
CC(C)C[C@@H](NC(=O)[C@H](C)NC(=O)CNC(=O)[C@@H](NC=O)C(C)C)C(=O)N[C@@H](C)C(=O)N[C@@H](C(=O)N[C@H](C(=O)N[C@@H](C(=O)N[C@@H](Cc1c[nH]c2ccccc12)C(=O)N[C@@H](C(=O)N[C@@H](Cc1c[nH]c2ccccc12)C(=O)N[C@H](CC(C)C)C(=O)N[C@@H](Cc1c[nH]c2ccccc12)C(=O)N[C@@H](C(=O)N[C@@H](Cc1c[nH]c2ccccc12)C(=O)NCCO)C(C)C)C(C)C)C(C)C)C(C)C)[C@H](C)O [compound 9030] (For-VGA[dL]A[dT]V[dV]W[dV]W[dL]W[dV]W-NHCH2CH2OH) | - | 71.3% | 1.12
CC(C)C[C@@H](NC(=O)[C@@H](NC(=O)[C@H](NC(=O)[C@H](C)NC(=O)[C@H](NC(=O)[C@H](C)NC(=O)CNC(=O)[C@@H](NC=O)C(C)C)C(C)C)C(C)C)C(C)C)C(=O)N[C@@H](Cc1c[nH]c2ccccc12)C(=O)N[C@@H](C(=O)N[C@@H](Cc1c[nH]c2ccccc12)C(=O)N[C@@H](C(=O)N[C@@H](Cc1c[nH]c2ccccc12)C(=O)N[C@@H](C(=O)N[C@@H](Cc1c[nH]c2ccccc12)C(=O)NCCO)[C@H](C)O)C(C)C)C(C)C [compound 6781] (For-VGA[dV]A[dV]V[dL]W[dV]W[dV]W[dT]W-NHCH2CH2OH) | + | 100.0% | 1.04
CNC(=O)C[C@@H](NC(=O)[C@@H](NC(=O)[C@H](NC(=O)[C@H](C)NC(=O)[C@H](NC(=O)[C@H](C)NC(=O)CNC(=O)[C@@H](NC=O)C(C)C)C(C)C)C(C)C)C(C)C)C(=O)N[C@@H](Cc1c[nH]c2ccccc12)C(=O)N[C@H](CC(C)C)C(=O)N[C@@H](Cc1c[nH]c2ccccc12)C(=O)N[C@H](CC(C)C)C(=O)N[C@@H](Cc1c[nH]c2ccccc12)C(=O)N[C@@H](C(=O)N[C@@H](Cc1c[nH]c2ccccc12)C(=O)NCCO)C(C)C [compound 12373] (For-VGA[dV]A[dV]V[dD](NHMe)W[dL]W[dL]W[dV]W-NHCH2CH2OH) | - | 100.0% | 1.04
CC(C)C[C@@H](NC(=O)[C@H](C)NC(=O)[C@H](NC(=O)[C@H](C)NC(=O)CNC(=O)[C@@H](NC=O)C(C)C)[C@H](C)O)C(=O)N[C@H](C(=O)N[C@H](CC(C)C)C(=O)N[C@@H](Cc1c[nH]c2ccccc12)C(=O)N[C@@H](C(=O)N[C@@H](Cc1c[nH]c2ccccc12)C(=O)N[C@H](CC(C)C)C(=O)N[C@@H](Cc1c[nH]c2ccccc12)C(=O)N[C@@H](C(=O)N[C@@H](Cc1c[nH]c2ccccc12)C(=O)NCCO)C(C)C)[C@H](C)O)C(C)C [compound 7135] (For-VGA[dT]A[dL]V[dL]W[dT]W[dL]W[dV]W-NHCH2CH2OH) | - | 100.0% | 1.09
CC(C)C[C@@H](NC(=O)[C@H](C)NC(=O)CNC(=O)[C@@H](NC=O)C(C)C)C(=O)N[C@@H](C)C(=O)N[C@@H](C(=O)N[C@H](C(=O)N[C@@H](C(=O)N[C@@H](Cc1c[nH]c2ccccc12)C(=O)N[C@@H](C(=O)N[C@@H](Cc1c[nH]c2ccccc12)C(=O)N[C@@H](C(=O)N[C@@H](Cc1c[nH]c2ccccc12)C(=O)N[C@@H](C(=O)N[C@@H](Cc1c[nH]c2ccccc12)C(=O)NCCO)C(C)C)C(C)C)C(C)C)C(C)C)C(C)C)C(C)C [compound 9610] (For-VGA[dL]A[dV]V[dV]W[dV]W[dV]W[dV]W-NHCH2CH2OH) | + | 100.0% | 1.14
CC(C)C[C@@H](NC(=O)[C@H](C)NC(=O)CNC(=O)[C@@H](NC=O)C(C)C)C(=O)N[C@@H](C)C(=O)N[C@@H](C(=O)N[C@H](C(=O)N[C@@H](C(=O)N[C@@H](Cc1c[nH]c2ccccc12)C(=O)N[C@H](CC(C)C)C(=O)N[C@@H](Cc1c[nH]c2ccccc12)C(=O)N[C@H](CC(C)C)C(=O)N[C@@H](Cc1c[nH]c2ccccc12)C(=O)N[C@H](CC(C)C)C(=O)N[C@@H](Cc1c[nH]c2ccccc12)C(=O)NCCO)C(C)C)C(C)C)C(C)C [compound 4495] (For-VGA[dL]A[dV]V[dV]W[dL]W[dL]W[dL]W-NHCH2CH2OH) | ++ | 3.5% | 1.26
CC(C)C[C@@H](NC(=O)[C@H](Cc1c[nH]c2ccccc12)NC(=O)[C@H](NC(=O)[C@H](Cc1c[nH]c2ccccc12)NC(=O)[C@@H](CC(C)C)NC(=O)[C@@H](NC(=O)[C@H](NC(=O)[C@H](C)NC(=O)[C@H](NC(=O)[C@H](C)NC(=O)CNC(=O)[C@@H](NC=O)C(C)C)C(C)C)C(C)C)C(C)C)C(C)C)C(=O)N[C@@H](Cc1c[nH]c2ccccc12)C(=O)N[C@@H](C(=O)N[C@@H](Cc1c[nH]c2ccccc12)C(=O)NCCO)C(C)C [compound 2554] (For-VGA[dV]A[dV]V[dL]W[dV]W[dL]W[dV]W-NHCH2CH2OH) | ++ | 9.2% | 1.06
CC(C)C[C@@H](NC(=O)[C@H](C)NC(=O)CNC(=O)[C@@H](NC=O)C(C)C)C(=O)N[C@@H](C)C(=O)N[C@H](CC(C)C)C(=O)N[C@H](C(=O)N[C@H](CC(C)C)C(=O)N[C@@H](Cc1c[nH]c2ccccc12)C(=O)N[C@@H](C(=O)N[C@@H](Cc1c[nH]c2ccccc12)C(=O)N[C@H](CC(C)C)C(=O)N[C@@H](Cc1c[nH]c2ccccc12)C(=O)N[C@H](CC(C)C)C(=O)N[C@@H](Cc1c[nH]c2ccccc12)C(=O)NCCO)C(C)C)C(C)C [compound 11198] (For-VGA[dL]A[dL]V[dL]W[dV]W[dL]W[dL]W-NHCH2CH2OH) | - | 3.2% | 1.08
CNC(=O)C[C@@H](NC(=O)[C@@H](NC(=O)[C@@H](CC(C)C)NC(=O)[C@H](C)NC(=O)[C@@H](CC(C)C)NC(=O)[C@H](C)NC(=O)CNC(=O)[C@@H](NC=O)C(C)C)C(C)C)C(=O)N[C@@H](Cc1c[nH]c2ccccc12)C(=O)N[C@H](CC(C)C)C(=O)N[C@@H](Cc1c[nH]c2ccccc12)C(=O)N[C@H](CC(C)C)C(=O)N[C@@H](Cc1c[nH]c2ccccc12)C(=O)N[C@@H](C(=O)N[C@@H](Cc1c[nH]c2ccccc12)C(=O)NCCO)[C@H](C)O [compound 8992] (For-VGA[dL]A[dL]V[dD](NHMe)W[dL]W[dL]W[dT]W-NHCH2CH2OH) | - | 56.1% | 1.07
CNC(=O)C[C@@H](NC(=O)[C@@H](NC(=O)[C@@H](CC(C)C)NC(=O)[C@H](C)NC(=O)[C@H](NC(=O)[C@H](C)NC(=O)CNC(=O)[C@@H](NC=O)C(C)C)C(C)C)C(C)C)C(=O)N[C@@H](Cc1c[nH]c2ccccc12)C(=O)N[C@@H](C(=O)N[C@@H](Cc1c[nH]c2ccccc12)C(=O)N[C@@H](C(=O)N[C@@H](Cc1c[nH]c2ccccc12)C(=O)N[C@@H](C(=O)N[C@@H](Cc1c[nH]c2ccccc12)C(=O)NCCO)C(C)C)C(C)C)C(C)C [compound 11383] (For-VGA[dV]A[dL]V[dD](NHMe)W[dV]W[dV]W[dV]W-NHCH2CH2OH) | - | 55.3% | 1.09
CC(C)C[C@@H](NC(=O)[C@H](Cc1c[nH]c2ccccc12)NC(=O)[C@H](NC(=O)[C@H](Cc1c[nH]c2ccccc12)NC(=O)[C@H](NC(=O)[C@H](Cc1c[nH]c2ccccc12)NC(=O)[C@@H](CC(C)C)NC(=O)[C@@H](NC(=O)[C@H](NC(=O)[C@H](C)NC(=O)[C@H](NC(=O)[C@H](C)NC(=O)CNC(=O)[C@@H](NC=O)C(C)C)C(C)C)C(C)C)C(C)C)C(C)C)C(C)C)C(=O)N[C@@H](Cc1c[nH]c2ccccc12)C(=O)NCCO [compound 3111] (For-VGA[dV]A[dV]V[dL]W[dV]W[dV]W[dL]W-NHCH2CH2OH) | - | 8.2% | 1.12
CC(C)C[C@@H](NC(=O)[C@H](C)NC(=O)[C@H](NC(=O)[C@H](C)NC(=O)CNC(=O)[C@@H](NC=O)C(C)C)C(C)C)C(=O)N[C@H](C(=O)N[C@H](CC(C)C)C(=O)N[C@@H](Cc1c[nH]c2ccccc12)C(=O)N[C@@H](C(=O)N[C@@H](Cc1c[nH]c2ccccc12)C(=O)N[C@@H](C(=O)N[C@@H](Cc1c[nH]c2ccccc12)C(=O)N[C@H](CC(C)C)C(=O)N[C@@H](Cc1c[nH]c2ccccc12)C(=O)NCCO)C(C)C)[C@H](C)O)C(C)C [compound 7325] (For-VGA[dV]A[dL]V[dL]W[dT]W[dV]W[dL]W-NHCH2CH2OH) | - | 82.2% | 1.04
CC(C)C[C@@H](NC(=O)[C@H](C)NC(=O)CNC(=O)[C@@H](NC=O)C(C)C)C(=O)N[C@@H](C)C(=O)N[C@@H](C(=O)N[C@H](C(=O)N[C@@H](C(=O)N[C@@H](Cc1c[nH]c2ccccc12)C(=O)N[C@@H](C(=O)N[C@@H](Cc1c[nH]c2ccccc12)C(=O)N[C@H](CC(C)C)C(=O)N[C@@H](Cc1c[nH]c2ccccc12)C(=O)N[C@H](CC(C)C)C(=O)N[C@@H](Cc1c[nH]c2ccccc12)C(=O)NCCO)C(C)C)C(C)C)C(C)C)C(C)C [compound 3124] (For-VGA[dL]A[dV]V[dV]W[dV]W[dL]W[dL]W-NHCH2CH2OH) | ++ | 0.0% | 1.26
